Test: gradient 5% acetonitrile 3 min, to 50% in 2 min, to 85% in 15 min, held 3 min, 100 µL/min
Details: column: Zorbax Extend-C18 2.1 x 50 mm; eluents: water / acetonitrile, 0.1% formic acid
Procedure, shortened: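 A Zorbax Extend-C18 column (2.1 × 50 mm, 1.8 μm) run at 100 μL/min with water and acetonitrile, both containing 0.1% formic acid, separated mixtures of ~100 pure standards. The HPLC was coupled to a quadrupole time-of-flight mass spectrometer operated in positive and negative ionization mode, with dead and dwell volumes of 40 μL and 900 μL. Each retention time was taken from a computationally picked adduct peak that was then manually inspected.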

| RP-LC retention time [s] | SMILES |
| --- | --- |
| 608 | CS(=O)(=O)c1ccc(NC(=O)CSc2ccc(N3CCCC(C(=O)NC4CC4)C3)nn2)cc1 (stereo not drawn) |
| 655 | Cc1cccc(N2CCN(C(=S)Nc3ccc4nc(N5CCN(C)CC5)cc(C)c4c3)CC2)c1C |
| 876 | Cc1nn(-c2ccccc2)c(C)c1S(=O)(=O)N1CCC(C(=O)NCc2cccs2)CC1 |
| 1010 | CC1CCN(c2cc(-n3cnc(C(=O)N4CCCCCC4)c3)ncn2)CC1 |
| 649 | CC(C)NC(=O)N1CCCN(S(=O)(=O)C(C)C)CC1 |
| 545 | O=C(NCCCn1ccnc1)C(=O)NC1CCCCC1 |
| 790 | COc1ccc(-n2ccn3cc(-c4ccc(F)cc4)nc3c2=O)cc1 |
| 659 | COc1ccc(Cl)cc1NC(=O)N1CCN(c2cc(C)nc(N3CCOCC3)n2)CC1 |
| 682 | O=C(NCCCN1CCc2ccccc2C1)C1CCCN(S(=O)(=O)N2CCCCCC2)C1 (stereo not drawn) |
| 957 | CC(C)c1ccc(NC(=O)C2CCCN(c3nc4ccccc4nc3C(F)(F)F)C2)cc1 (stereo not drawn) |
| 1080 | COc1ccc(-n2nnc(-c3nsc(Nc4cccc(Cl)c4)n3)c2C)cc1 |
| 818 | c1ccc(-c2cnn3cc(-c4ccc(OCCN5CCOCC5)cc4)cnc23)cc1 |
| 821 | COC(=O)c1cc(OCC(=O)Nc2cccc(Cl)c2)c2ccccc2n1 |
| 900 | COc1ccc2nc(C(=O)N3CCN(c4ccc(Cl)cc4)CC3)cn2n1 |
| 573 | CCCN1CCN(CCCNC(=O)C2CCCN(c3nc4cccnc4s3)C2)CC1 (stereo not drawn) |
| 1390 | Cc1ccc(-c2csc(NC(=O)c3sc(-c4ccccc4)nc3C)n2)cc1C |
| 711 | O=C(c1ccco1)N1CCN(C(=O)c2cccn2CC(=O)N2CCc3ccccc32)CC1 |
| 730 | Cc1ccc(NS(=O)(=O)c2cc(-c3[nH]ncc3C(=O)N(C)C)oc2C)cc1Cl |
| 948 | O=C(NCC(c1cccs1)S(=O)(=O)c1ccc(F)cc1)c1nc2ccccc2s1 (stereo not drawn) |
| 572 | Cc1nccn1C1CN(C(=O)C2CCCCC2)C1 |
| 668 | CN(C)C(CNC(=O)c1cc(-c2cccs2)on1)c1ccc(F)cc1 (stereo not drawn) |
| 787 | COc1ccc(N2CC(c3noc(-c4cc(OC)c(OC)c(OC)c4)n3)CC2=O)cc1 (stereo not drawn) |

| RP-LC retention time [s] | SMILES |
| --- | --- |
| 957 | COc1ccc(CNC(=O)C2CCN(c3nc(C4CCC4)nc4csc(C)c34)CC2)cc1OC |
| 689 | CCOc1ccc(N2CCn3c2nc2c3c(=O)n(CC(=O)O)c(=O)n2C)cc1 |
| 1230 | Cc1ccc(C)c(-c2coc(-c3ccc(NC(=O)Cc4cccs4)cc3)n2)c1 |
| 888 | Cc1cc(C)cc(C(=O)Nc2ccc3c(c2)Sc2ncccc2C(=O)N3C)c1 |
| 1150 | CC(C)Oc1ccc(-c2noc(Cn3ncn4nc(-c5cccs5)cc4c3=O)n2)cc1 |
| 964 | CCCOc1ccc(C2C(C(=O)N3CCOCC3)=C(C)NC3=C2C(=O)CCC3)cc1OC (stereo not drawn) |
| 1060 | O=C(NCCC1CCCCN1S(=O)(=O)c1ccccc1)C(=O)Nc1ccccc1Cl (stereo not drawn) |
| 806 | O=C(Nc1ccc(F)cc1F)N1CCC(n2cnc3c(Cl)cccc3c2=O)CC1 |
| 994 | CSc1nc2ccc(NS(=O)(=O)c3ccc(Br)s3)cc2s1 |
| 752 | O=C(NCc1cc(F)cc(F)c1)C1CCN(c2ncnc3c2oc2ccccc23)CC1 |
| 963 | CC(C)Oc1ccc(C(=O)N(Cc2ccc(Br)o2)C2CCS(=O)(=O)C2)cc1 (stereo not drawn) |
| 600 | O=C(NCc1ccco1)C1CCCN(C(=O)c2cccn2-c2cccnc2)C1 (stereo not drawn) |
| 748 | Cc1ccc(-n2nc(OC(C)C(=O)NCc3ccco3)ccc2=O)cc1C (stereo not drawn) |
| 731 | Cc1ccc2c(c1)C(=O)NC1(CCN(C(=O)NCc3ccccc3)CC1)N2C |
| 1160 | COC(=O)c1cc(C)nc2c1c(=O)n(Cc1ccc(C)cc1)c(=O)n2Cc1ccco1 |
| 585 | COc1ccc(OC)c2sc(NCc3ccccn3)nc12 |
| 706 | COc1ccc(Cl)cc1NC(=O)C(=O)NCC1(O)CCOCC1 |
| 1250 | COc1cccc(-c2csc(Cc3nc(-c4cccc(C)c4)no3)n2)c1 |
| 644 | CC(C)c1nnc(-c2ccc(S(=O)(=O)N3CCN(C4CCCCC4)CC3)o2)o1 |
| 1070 | CC(C)(C)C(=O)Nc1cnc(-c2cccc(Cl)c2)nc1 |
| 828 | COc1ccc(Nc2c(-c3ccc(Cl)cc3)nc3cnccn23)cc1OC |
| 658 | CC(C)CNC(=O)C1CCCN(c2cnc3nccnc3c2)C1 (stereo not drawn) |

| RP-LC retention time [s] | SMILES |
| --- | --- |
| 628 | CNC(=O)C1CCCN(c2nc3ncn(CC(=O)Nc4ccccc4C)c(=O)c3s2)C1 (stereo not drawn) |
| 1170 | Cc1cccc(-c2noc(Cn3c(=O)n(C(C)C)c(=O)c4ccccc43)n2)c1 |
| 892 | CCCCN1C(=O)CC(C(=O)OCC)=C1C |
| 550 | CCn1nnc2c(N3CCN(CC(=O)NC4CCCC4)CC3)ncnc21 |
| 590 | CSc1cccc2sc(NCc3cccnc3)nc12 |
| 976 | Cc1ccc(NC(=O)CN2C(=O)CCCc3cc(S(=O)(=O)N4CCC(C)CC4)ccc32)cc1 |
| 1180 | Cc1ccccc1CSc1nnc(-c2ccccc2Cl)o1 |
| 586 | O=S(=O)(/C=C/c1ccccc1)NCC1CCN(Cc2ccsc2)CC1 |
| 609 | CN1CC(c2nc(C3CC3)no2)C2(CCN(C(=O)c3ccc4c(c3)OCO4)CC2)C1 (stereo not drawn) |
| 650 | O=C(c1ccc(Cl)cc1)N1CCCN(c2nnc3ccccn23)CC1 |
| 736 | Cc1ccc(S(=O)(=O)N2CCC(n3cnnc3C)CC2)cc1Cl |
| 691 | CCC(=O)N1c2ccc(S(=O)(=O)N3CCCCC3)cc2CC1C(=O)NCc1ccc(N(C)C)cc1 (stereo not drawn) |
| 776 | Cc1noc(C2CN(C(=O)Nc3ccc(C)c(F)c3)CC23CCOCC3)n1 (stereo not drawn) |
| 1230 | Cc1cccc(-c2noc(C3CCCN3S(=O)(=O)c3ccc(Br)cc3)n2)c1 (stereo not drawn) |
| 777 | COc1ccc(C(=O)c2c(N)c(C#N)c3ccccn23)cc1 |
| 1260 | COc1ccc(-c2noc(C3(NC(=O)c4ccc(C(F)(F)F)cc4)CCCCC3)n2)cc1 |
| 702 | O=C(Cc1cccc(C(F)(F)F)c1)N1CCN(c2nnc3ccccn23)CC1 |
| 1090 | Cc1ccc(-c2csc3c(=O)n(CC(=O)OC(C)(C)C)cnc23)cc1 |
| 794 | C=C1C(=O)[C@]23[C@H](O)[C@H]1CC[C@H]2[C@@]12CO[C@]3(O)[C@@H](O)[C@@H]1C(C)(C)CC[C@@H]2O |
| 724 | Cc1ccc(C)c(NC(=O)CN2CCC(c3nc(-c4cccs4)no3)CC2)c1 |
| 713 | O=C(C1CCC1)N1CCCC(OCc2nc(-c3ccncc3)no2)C1 (stereo not drawn) |
| 960 | CC1Oc2ccc(-c3csc(NC(=O)c4cccc(Br)c4)n3)cc2N(C)C1=O (stereo not drawn) |

| RP-LC retention time [s] | SMILES |
| --- | --- |
| 587 | CCn1cc(C)c(C(=O)O)c1CC(=O)N1CCC(N2CCCCC2)CC1 |
| 714 | COc1ccc(N(Cc2nnc3n2CCCCC3)C(=O)Nc2cccc(OC)c2)cc1 |
| 773 | O=C(Nc1ccccc1)C1CCCN(c2ccc3cc(S(=O)(=O)N4CCCC4)ccc3n2)C1 (stereo not drawn) |
| 714 | O=C(CCc1cccc2[nH]ccc12)NCc1ccc(N2CCOCC2)cc1 |
| 702 | CCc1ccc(Nc2c(C(=O)N3CCCC(C)C3)cnc3nc(C)ccc23)cc1 (stereo not drawn) |
| 720 | CCc1noc(-c2cnc3nc(C)ccc3c2Nc2ccc3c(c2)OCO3)n1 |
| 1040 | COc1ccc(-c2nc3cnccn3c2Nc2ccc(C)cc2Br)cc1 |
| 1040 | COc1cccc(C(=O)NC2(C(F)(F)F)C(=O)N(CC(C)C)C3=C2C(=O)CC(C)(C)C3)c1 (stereo not drawn) |
| 893 | Cn1nc(-c2nc(C3CC3)no2)c2c1CCN(C(=O)c1ccc(Br)cc1)C2 |
| 928 | O=C(NCCc1c[nH]c2ccc(Cl)cc12)c1cccc(NC(=O)c2nnc(C3CC3)s2)c1 |
| 1040 | Cc1cc(NC(=O)Cn2c(=O)oc3ccccc32)n(-c2nc3c(F)cccc3s2)n1 |
| 699 | O=c1oc2cc(O)cc(O)c2c2ccccc12 |
| 1010 | Cc1ccc(OCc2nnc3sc(C4COc5ccccc5O4)nn23)cc1 (stereo not drawn) |
| 726 | Cc1nn(-c2ccccc2)c(C)c1S(=O)(=O)N1CCC(C(=O)Nc2ccc(Cl)cc2)CC1 |
| 783 | CCOC(=O)c1ccc(NC(=O)C2CCN(S(=O)(=O)c3ccc4[nH]c(=O)ccc4c3)CC2)cc1 |
| 768 | CCn1c(=O)sc2cc(S(=O)(=O)N3CCC(C(=O)Nc4cccc(C)n4)CC3)ccc21 |
| 924 | Cc1ccc(Nc2ncccc2S(N)(=O)=O)cc1Cl |
| 773 | CC1Oc2ccc(-c3csc(NC(=O)c4cccnc4)n3)cc2N(C)C1=O (stereo not drawn) |
| 824 | COc1cc(-c2ccc(NC(=O)NC3CC3)c(OC)c2)ccc1NC(=O)NC1CC1 |
| 813 | O=C(NC1CC1)c1ccc(OCC2CCCN2C(=O)Cc2ccc(F)cc2)cc1 (stereo not drawn) |

| SMILES | RP-LC retention time [s] |
| --- | --- |
| COc1ccc2c(c1)C1(CCN(C(=O)c3ccc(F)c(F)c3)C1)C(=O)N2C (stereo not drawn) | 634 |
| CCc1c(C(=O)OC)ncc2[nH]c3cc(OC)c(OC)cc3c12 | 702 |
